Results reported in patent US11413255B2, “Multifunctional cytoprotectant for treatment of pathogenic processes mediated by oxidative stress and toxic electrophiles” (Montefiore Medical Center, priority 2015, dated 2022).
Entries after “also recorded” stand apart in the source; their conditions may differ. Read-outs that look alike come from different tables or passages of the source.

Tests used:
[1] = system: APAP-exposed isolated mouse liver cells (hepatocytes); experiment: Viability of APAP-exposed isolated mouse hepatocytes, graded protectant concentrations; type: cell-based; conditions: read-out: EC50 (cytoprotection)
[2] = system: isolated hepatocytes exposed to graded APAP; experiment: Isolated hepatocytes, fixed protectant and graded APAP concentrations; type: cell-based, mouse
Excerpt: FIG. 8A-8B. […] Data are expressed as mean percent of control±SEM and *indicates p<0.05.

APAP-exposed hepatocytes = experiment: Hepatocyte rescue: protectant added 2 hrs after APAP; type: cell-based, mouse
[3] = In chemico prevention of thiol (GSH) depletion by acrolein; type: biochemical; conditions: FIG. 2B
[4] = system: raloxifene-exposed hepatocytes; experiment: Raloxifene-induced hepatocyte toxicity; conditions: for protection against raloxifene: at 150 μM
[5] = pKa and % anion at physiological pH; conditions: for % in the carbanion / ionized nucleophilic state: physiological / cellular pH
APAP-intoxicated mice = conditions: for hepatoprotection in APAP-intoxicated mice, i. p. administration: i. p. 20 mins prior to APAP, THA 0.20-0.80, PG 0.40-2.40, 4-NAHA 0.04-0.08 mmol/kg; for hepatoprotection in APAP-intoxicated mice, oral administration: THA and PG 0.80-2.40, 4-NAHA 0.04-0.12, NAC 1.60-2.40 mmol/kg
Excerpt: Survival curves, THA and PG i. p. administration.
Survival curves, THA and PG oral administration.
Survival curves, 4-NAHA i. p. and oral administration.

mice [6] = system: mice
[7] = system: raloxifene-exposed hepatocytes
[8] = system: cell culture models of oxidative stress and electrophile (acrolein) toxicity; conditions: cited from earlier work
mice [9] = conditions: cited from earlier work
[10] = In chemico prevention of thiol (GSH) depletion by NAPQI; type: biochemical; conditions: FIG. 2A
[11] = system: carbon tetrachloride-induced hepatotoxicity in mice; conditions: 0.032 mmol/kg p. o.; carbon tetrachloride 0.5 ml/kg i. p.; cited from earlier work
[12] = Computational data on THA analogues: pKa and % anion; type: physicochemical
Excerpt: Computational Data on THA Analogues:

[13] = 0.25 mM protectant, APAP 0.25-5.0 mM×4 hrs
[14] = 1.0 mM protectant, APAP 0.25-5.0 mM×4 hrs
[15] = 0.25 mM protectant, APAP 1.0 mM
[16] = 0.25 mM protectant, highest APAP concentration 5.0 mM

Compound | EC50 ([1]; Mus musculus, Hepatocyte, 4 h) | cytoprotection (viability) [2, 13] | toxicity measures (ALT appearance, mitochondrial membrane potential) ([2]; 1.0 mM protectant) | cytoprotection (viability) [2, 14] | effect on viability, protectant added 2 hrs post-APAP (APAP-exposed hepatocytes; [15]) | effect on viability, protectant added 2 hrs post-APAP (APAP-exposed hepatocytes; 1.0 mM protectant) | protection against raloxifene [4] | % Anion (pH 7.4) [5] | hepatoprotection in APAP-intoxicated mice, oral administration (APAP-intoxicated mice) | also measured
CC(=O)C1CCCC1=O (stereo not drawn) [2-ACP, 2-acetylcyclopentanone] | ~1000 µM | neither 2-ACP nor NAC provided cytoprotection beyond the lowest APAP concentration | return toward normalization of the toxicity indices | partial cytoprotection | ineffective | truncated the rapid decline in viability | partial protection | 28.0% | – | effect on viability, protectant added 2 hrs post-APAP (APAP-exposed hepatocytes; 5 mM protectant, APAP 1.0 mM): promoted recovery of APAP-exposed hepatocytes; prevention of acrolein-induced thiol (GSH) depletion [3]: better GSH protection from acrolein than THA or PG
CC(=O)c1cc(O)c(C(C)=O)c(O)c1 [4-NAHA, 4-acetyl-2,6-dihydroxy acetophenone] | – | – | – | – | – | – | fully protective | – | effective over a broader dose-range | EC50 ([1]; APAP 1.0 mM, 4 hrs, protectant 0.010-5.0 mM): 6 µM; hepatoprotection (APAP-intoxicated mice; i. p. 0.04 mmol/kg): ineffective; hepatoprotection (APAP-intoxicated mice; i. p. 0.08 mmol/kg): significant hepatoprotection; hepatoprotection in APAP-intoxicated mice, i. p. administration (APAP-intoxicated mice): dose-dependent protection; hepatoprotection (APAP-intoxicated mice; oral 0.04 mmol/kg): ineffective; hepatoprotection (APAP-intoxicated mice; oral 0.12 mmol/kg, lethality significantly delayed): partially protective; delayed toxicity (mice [6]; all doses tested, 7 days): did not cause delayed toxicity; acute toxicity (mice [6]; doses 0.04-0.12 mmol/kg): not acutely toxic; relative ability to prevent raloxifene-induced hepatocyte toxicity [7]: superior protection
CC(=O)N[C@@H](CS)C(=O)O [NAC, N-acetyl cysteine] | ~1000 µM | neither 2-ACP nor NAC provided cytoprotection beyond the lowest APAP concentration | return toward normalization of the toxicity indices | partial cytoprotection | ineffective | truncated the rapid decline in viability | partial protection | 0.80% | effective APAP antidote only when administered orally | effect on viability, protectant added 2 hrs post-APAP (APAP-exposed hepatocytes; 5 mM protectant, APAP 1.0 mM): promoted recovery of APAP-exposed hepatocytes
Oc1cc(O)cc(O)c1 [PG, 1,3,5-trihydroxybenzene] | ~90 µM | fully protective up to the 1.0 mM APAP concentration | – | full hepatocyte protection irrespective of APAP concentration | arrested the progression of APAP-induced toxicity | complete restoration of viability | – | 7.40% | – | pKa (physchem): 8.45; cytoprotection (viability) [2, 16]: only partial cytoprotection; % in the carbanion / ionized nucleophilic state [5]: 7%
O=C(CCc1ccc(O)cc1)c1c(O)cc(O)cc1O [Phloretin, phloretin] | – | – | – | – | – | – | – | 55.0% | – | effect of higher concentrations ([8]; above the protective range): cytotoxic; concentrations giving significant cytoprotection ([8]; several cell culture models): 100 to 250 µM; hepatoprotection (APAP-intoxicated mice; i. p. 0.200 mmol/kg, APAP 500 mg/kg p. o.): marginal hepatoprotection; lethality when administered alone (mice [6]; 0.40-2.40 mmol/kg, administered alone): associated with lethality
CC(=O)c1c(O)cc(O)cc1O [THA, 2′,4′,6′-trihydroxyacetophenone] | ~90 µM | fully protective up to the 1.0 mM APAP concentration | normal | full hepatocyte protection irrespective of APAP concentration | partial recovery of viability | complete restoration of viability | fully protective | 33.0% | dose-dependent hepatoprotection; also recorded: dose-dependent protection | pKa (physchem): 7.75; hepatoprotection in APAP-intoxicated mice, i. p. administration (APAP-intoxicated mice): dose-dependent (0.20-0.80 mmol/kg) hepatoprotection; cytoprotection (viability) [2, 16]: preserved cell viability; oral LD50 mice (mice [9]): 3.20 gm/kg; lethality associated with the i. p. doses (mice [6]; i. p. doses of FIG. 3): No lethality; prevention of NAPQI-induced thiol (GSH) depletion [10]: better thiol protection than PG; also recorded: better protection against NAPQI-induced GSH loss; prevention of carbon tetrachloride-induced hepatotoxicity [11]: completely prevent; prevention of acrolein-induced thiol (GSH) depletion [3]: better thiol protection than PG; relative ability to prevent raloxifene-induced hepatocyte toxicity ([4]; FIG. 10 legend): superior protection; pKa [5]: 7.7; % in the carbanion / ionized nucleophilic state [5]: approximately 33%
O=C(CCc1ccc(O)cc1)c1c(O)cc(O)cc1O [drawing 21] | – | – | – | – | – | – | – | – | – | % Anion (pH = 7.4) [12]: 56%
Oc1cc(O)cc(O)c1 [drawing 24] | – | – | – | – | – | – | – | – | – | % Anion (pH = 7.4) [12]: 07%; pKa ([12]; values without * (not estimates)): 8.5
O=C(c1ccc(OCCN2CCCCC2)cc1)c1c(-c2ccc(O)cc2)sc2cc(O)ccc12 [raloxifene, reference compound] | – | – | – | – | – | – | – | – | – | concentration producing hepatocyte toxicity ([4]; raloxifene exposure): 75 µM
